Test results as given in US8063034B2, “Oxadiazole derivatives and thiadiazole derivatives having neovascularization inhibitory activity” (Santen Pharmaceutical Co., Ltd., priority 2007, dated 2011).
Structures can show the parent of a compound that is named as a salt.

Target: T1, tyrosine kinase (KDR) (Homo sapiens, UniProt P35968)
T1 construct: purchased CARNABIO SCIENCE Co. Ltd. JAPAN
Assay: Evaluation test of inhibitory effect of tyrosine kinase (KDR) activity, ELISA method (CARNABIO SCIENCE kit)
Type: biochemical
Settings: 4 mg/L test compound, 1 μM ATP, substrate 250 nM, 1 hour at room temperature, absorbance 450 nm; read-out: tyrosine kinase inhibition rates (% inhibition)
Experimental: In order to find usefulness of the present compounds, a test of inhibitory effect of tyrosine kinase (KDR) activity was conducted on the present compounds using an evaluation system for kinase (KDR) inhibitory activity by way of the ELISA method which is the method for evaluating neovascularization inhibition effect of drugs, and the neovascularization inhibition effects were evaluated.
Evaluation Test of Inhibitory Effect of Tyrosine Kinase (KDR) Activity
As one of the widely-used methods of evaluating inhibitory effect of tyrosine kinase (KDR) activity by drugs, the ELISA method has been reported. The inhibitory effect of tyrosine kinase (KDR) activity of each of the present compounds was evaluated using the commercially available kit (purchased from CARNABIO SCIENCE Co. Ltd. JAPAN) for evaluating inhibitory effect of tyrosine kinase (KDR) activity.
(Preparation of Test Compound Solution)
Each test compound (2 mg) were dissolved in dimethyl sulfoxide (hereinafter abbreviated as DMSO), and the 2 mg/ml stock solution were prepared. Each obtained solution was diluted with 8 μL of DMSO. Each solution (0.4 mg/ml compound) was diluted 25 times with assay buffer to give the test compound solution. For the vehicle, 4% DMSO-Assay Buffer solution was prepared.
(Preparation of ATP/Substrate Solution)
Thaw commercially available ATP/Substrate (purchased from CARNABIO SCIENCE Co. Ltd. JAPAN), then 250 μL of it was added to 1 mL of assay buffer to give ATP/substrate solution. ATP/substrate solution was kept on ice before use.
(Preparation of Enzyme Solution)
7 μL of commercially available tyrosine kinase (purchased from CARNABIO SCIENCE Co. Ltd. JAPAN) was added to 2.793 mL of assay buffer to give enzyme solution. Enzyme solution was kept on ice before use.
(Preparation of Blocking Buffer)
BSA (Sigma, A-7030) was dissolved with wash buffer (50 mM Tris-HCl (pH7.5), 150 mM NaCl, 0.2% Tween-20) to give x100 BSA solution, and the solution was kept at −80° C. Thaw 400 μL of x100 BSA solution before use, it was added to 40 mL of wash buffer to give blocking buffer.
(Preparation of Detection Mixture)
40 μL of commercially available HRP-conjugated antibody (purchased from CARNABIO SCIENCE Co. Ltd. JAPAN) was added to 12 mL of blocking buffer to give detection mixture.
(Method of Test and Method of Measurement)
1) Add 10 μL of each test compound solution, 10 μL of ATP/substrate solution and 20 μL of enzyme solution to each well of ELISA plate (streptavidin-coated 96-well plate, PerkinElmer, 4009-0010). Incubate for 1 hour at room temperature (4 mg/L test compound solution, 15 mM Tris-HCl (pH7.5), 0.01% Tween 20, 2 mM DTT, concentration of substrate: 250 nM, 1 μM ATP, 5 mM Mg). For the vehicle, the above mentioned 4% DMSO-assay buffer solution was added instead of test compound solution.
2) Aspirate each well and wash with wash buffer, repeating the process three times for four washes.
3) Add 200 μL of blocking buffer to each well and cover the plate and incubate for 30 minutes.
4) Aspirate each well, add 100 μL of detection mixture to each well and incubate the plate for 30 minutes.
5) Aspirate each well and wash with wash buffer 4 times.
6) Add 100 μL of color reagent to each well. Incubate for 5 minutes and then add 0.1 M H2SO4 to each well.
7) Measure the absorbance of each well, using a plate reader set to […].
(Calculation of Kinase Inhibition Rate)
Rate of the reaction positive control well with kinase was considered 0% inhibition, rate of the reaction negative control well with assay buffer instead of kinase was considered 100% inhibition, and so the inhibition rates of test compound well were calculated based on the absorbance of them.
A: Absorbance of the reaction positive control well
B: Absorbance of the reaction negative control well
C: Absorbance of the test compound well
tyrosine kinase inhibition rates (%)=100 [1-(C-A)/(B-A)]

T1 sequence (P35968 790-1356 limits assumed): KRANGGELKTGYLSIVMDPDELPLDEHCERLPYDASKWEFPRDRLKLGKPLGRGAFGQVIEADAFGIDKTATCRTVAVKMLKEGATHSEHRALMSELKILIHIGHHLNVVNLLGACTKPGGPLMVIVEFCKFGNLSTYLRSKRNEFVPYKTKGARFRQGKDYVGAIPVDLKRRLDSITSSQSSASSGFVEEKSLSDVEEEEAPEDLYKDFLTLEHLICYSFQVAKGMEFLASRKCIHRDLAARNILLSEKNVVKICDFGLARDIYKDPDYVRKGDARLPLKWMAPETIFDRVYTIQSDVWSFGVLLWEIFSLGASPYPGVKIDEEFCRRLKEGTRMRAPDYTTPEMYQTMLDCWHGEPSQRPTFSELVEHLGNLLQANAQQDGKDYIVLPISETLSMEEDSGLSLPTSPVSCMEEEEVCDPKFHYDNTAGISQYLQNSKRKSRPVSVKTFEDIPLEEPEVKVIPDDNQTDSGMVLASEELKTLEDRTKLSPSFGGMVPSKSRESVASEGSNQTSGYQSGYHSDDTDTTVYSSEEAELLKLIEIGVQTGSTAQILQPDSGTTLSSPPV

inhibition at 4 µg/mL	SMILES
72%	c1ccc(Nc2nnc(-c3cccnc3SCc3ccnc4ccccc34)o2)cc1 [Compound 1-13, N-Phenyl-5-(2-(quinolin-4-yl)methylthiopyridin-3-yl)-1,3,4-oxadiazol-2-amine]
82%	Clc1ccc(Nc2nnc(-c3ccccc3SCc3ccncc3)o2)cc1 [Compound 1-41, N-(4-Chlorophenyl)-5-(2-(pyridin-4-yl)methylthiophenyl)-1,3,4-oxadiazol-2-amine]
98%	CC(=O)Nc1cc(CSc2ccccc2-c2nnc(Nc3cccc(C(F)(F)F)c3)o2)ccn1 [Compound 1-46, 5-(2-(2-Acetamidopyridin-4-yl)methylthiophenyl)-N-(3-trifluoromethylphenyl)-1,3,4-oxadiazol-2-amine]
99%	CC(=O)Nc1cc(CSc2ncccc2-c2nnc(Nc3cccc(C(F)(F)F)c3)o2)ccn1 [Compound 1-18, 5-(2-(2-Acetamidopyridin-4-yl)methylthiopyridin-3-yl)-N-(3-trifluoromethylphenyl)-1,3,4-oxadiazol-2-amine]
80%	FC(F)(F)c1cccc(Nc2nnc(-c3ccccc3OCc3ccncc3)o2)c1 [Compound 1-3, 5-(2-(Pyridin-4-yl)methoxyphenyl)-N-(3-trifluoromethylphenyl)-1,3,4-oxadiazol-2-amine]
76%	c1ccc(Nc2nnc(-c3cccnc3SCc3ccncc3)o2)cc1 [Compound 1-10, N-Phenyl-5-(2-(pyridin-4-yl)methylthiopyridin-3-yl)-1,3,4-oxadiazol-2-amine]
86%	CNC(=O)c1cc(CSc2ncccc2-c2nnc(Nc3ccc(Cl)cc3)o2)ccn1 [Compound 1-20, N-(4-Chlorophenyl)-5-(2-(2-methylaminocarbonylpyridin-4-yl)methylthiopyridin-3-yl)-1,3,4-oxadiazol-2-amine]
43%	CC(C)(C)c1ccc(Nc2nnc(-c3ccccc3SCc3ccncc3)s2)cc1 [Compound 1-39, N-(4-t-Butylphenyl)-5-(2-(pyridin-4-yl)methylthiophenyl)-1,3,4-thiadiazol-2-amine]
86%	CC(C)(C)c1ccc(Nc2nnc(-c3ccccc3SCc3ccncc3)o2)cc1 [Compound 1-34, N-(4-t-Butylphenyl)-5-(2-(pyridin-4-yl)methylthiophenyl)-1,3,4-oxadiazol-2-amine]
88%	c1ccc(Nc2nnc(-c3ccccc3SCc3ccnc4ccccc34)o2)cc1 [Compound 1-40, N-Phenyl-5-(2-(quinolin-4-yl)methylthiophenyl)-1,3,4-oxadiazol-2-amine]
53%	FC(F)(F)c1ccc(Nc2nnc(-c3ccccc3SCc3ccncc3)s2)cc1 [Compound 1-38, 5-(2-(Pyridin-4-yl)methylthiophenyl)-N-(4-trifluoromethylphenyl)-1,3,4-thiadiazole-2-amine]
55%	c1ccc(Nc2nnc(-c3ccccc3SCc3ccncc3)o2)cc1 [Compound 1-32, N-Phenyl-5-(2-(pyridin-4-yl)methylthiophenyl)-1,3,4-oxadiazol-2-amine]
98%	Nc1cc(CSc2ncccc2-c2nnc(Nc3cccc(C(F)(F)F)c3)o2)ccn1 [Compound 1-92, 5-(2-(2-Aminopyridin-4-yl)methylthiopyridin-3-yl)-N-(3-trifluoromethylphenyl)-1,3,4-oxadiazol-2-amine hydrochloride]
84%	Clc1cccc(Nc2nnc(-c3ccccc3SCc3ccncc3)s2)c1 [Compound 1-37, N-(3-Chlorophenyl)-5-(2-(pyridin-4-yl)methylthiophenyl)-1,3,4-thiadiazol-2-amine]
75%	Nc1nccc(CSc2ccccc2-c2nnc(Nc3ccccc3)o2)n1 [Compound 1-47, 5-(2-(2-Aminopyrimidin-4-yl)methylthiophenyl)-N-phenyl-1,3,4-oxadiazol-2-amine]
86%	Nc1cc(CSc2ncccc2-c2nnc(Nc3ccc(Cl)cc3)o2)ccn1 [Compound 1-91, 5-(2-(2-Aminopyridin-4-yl)methylthiopyridin-3-yl)-N-(4-chlorophenyl)-1,3,4-oxadiazol-2-amine hydrochloride]
90%	Clc1ccc(Nc2nnc(-c3cccnc3SCc3ccnc4ccccc34)o2)cc1 [Compound 1-14, N-(4-Chlorophenyl)-5-(2-(quinolin-4-yl)methylthiopyridin-3-yl)-1,3,4-oxadiazol-2-amine]
94%	CC(=O)Nc1cc(CSc2ncccc2-c2nnc(Nc3ccc(Cl)cc3)o2)ccn1 [Compound 1-17, 5-(2-(2-Acetamidopyridin-4-yl)methylthiopyridin-3-yl)-N-(4-chlorophenyl)-1,3,4-oxadiazol-2-amine]
58%	c1ccc(Nc2nnc(-c3ccccc3SCc3ccncc3)s2)cc1 [Compound 1-35, N-Phenyl-5-(2-(pyridin-4-yl)methylthiophenyl)-1,3,4-thiadiazol-2-amine]
95%	FC(F)(F)c1cccc(Nc2nnc(-c3ccccc3SCc3ccncc3)o2)c1 [Compound 1-33, 5-(2-(Pyridin-4-yl)methylthiophenyl)-N-(3-trifluoromethylphenyl)-1,3,4-oxadiazol-2-amine]
55%	c1ccc(Nc2nnc(-c3ccccc3OCc3ccncc3)o2)cc1 [Compound 1-1, N-Phenyl-5-(2-(pyridin-4-yl)methoxyphenyl)-1,3,4-oxadiazol-2-amine]
93%	CNC(=O)c1cc(CSc2ncccc2-c2nnc(Nc3cccc(C(F)(F)F)c3)o2)ccn1 [Compound 1-21, 5-(2-(2-Methylaminocarbonylpyridin-4-yl)methylthiopyridin-3-yl)-N-(3-trifluoromethylphenyl)-1,3,4-oxadiazol-2-amine]
75%	c1ccc(Nc2nnc(-c3ccccc3OCc3ccnc4ccccc34)o2)cc1 [Compound 1-4, N-Phenyl-5-(2-(quinolin-4-yl)methoxyphenyl)-1,3,4-oxadiazol-2-amine]
95%	CC(=O)Nc1cc(CSc2ncccc2-c2nnc(Nc3ccccc3)o2)ccn1 [Compound 1-16, 5-(2-(2-Acetamidopyridin-4-yl)methylthiopyridin-3-yl)-N-phenyl-1,3,4-oxadiazol-2-amine]
91%	CC(=O)Nc1cc(CSc2ccccc2-c2nnc(Nc3ccc(Cl)cc3)o2)ccn1 [Compound 1-45]
65%	CC(=O)Nc1cc(COc2ccccc2-c2nnc(Nc3ccccc3)o2)ccn1 [Compound 1-6, 5-(2-(2-Acetamidopyridin-4-yl)methoxyphenyl)-N-phenyl-1,3,4-oxadiazol-2-amine]
68%	Clc1ccc(Nc2nnc(-c3ccccc3SCc3ccncc3)s2)cc1 [Compound 1-36, N-(4-Chlorophenyl)-5-(2-(pyridin-4-yl)methylthiophenyl)-1,3,4-thiadiazol-2-amine]

SMILES	inhibition at 4 µg/mL
CC(C)(C)OC(=O)Nc1cc(CSc2ncccc2-c2nnc(Nc3ccccc3)o2)ccn1 [Compound 1-7, 5-(2-(2-t-Butoxycarbonylaminopyridin-4-yl)methylthiopyridin-3-yl)-N-phenyl-1,3,4-oxadiazol-2-amine]	60%
